Reference: patent publication US20070134261A1, “Effectors of innate immunity” (priority 2001, published 2007)
Read-outs that look alike come from different tables or passages of the source. Residues, ends and D or L forms follow the SMILES beside them.

What was measured:
whole human blood = assay type: cell-based; conditions: 4 hr (0 μg/ml: 3205)
HBE cells = assay: Phosphorylation of MAP kinases (Western blot) in HBE cells; assay type: cell-based, human
Procedure: The cells were seeded at 2.5×10^5−5×10^5 cells/ml and left overnight. They were washed once in media, serum starved in the morning (serum free media—4 hrs). The media was removed and replaced with PBS, then sat at 37° C. for 15 minutes and then brought to room temp for 15 minutes. Peptide was added (concentrations 0.1 μg/ml−50 μg/ml) or H2O and incubated 10 min. The PBS was very quickly removed and replaced with ice-cold radioimmunoprecipitation (RIPA) buffer with inhibitors (NaF, B-glycerophosphate, MOL, Vanadate, PMSF, Leupeptin Aprotinin). The plates were shaken on ice for 10-15 min or until the cells were lysed and the lysates collected. The procedure for THP-1 cells was slightly different; more cells (2×10^6) were used. They were serum starved overnight, and to stop the reaction 1 ml of ice-cold PBS was added then they sat on ice 5-10 min, were spun down then resuspended in RIPA. Protein concentrations were determined using a protein assay (Pierce, Rockford, Ill.). Cell lysates (20 μg of protein) were separated by SDS-PAGE and transferred to nitrocellulose filters. […] The freshly harvested cells were consistently >99% viable as assessed by their ability to exclude trypan blue. […] Protein content was analyzed and approximately 30 μg of each sample was loaded in a 12% SDS-PAGE gel. […] Phosphorylation was detected with phosphorylation-specific antibodies.

A549 epithelial cells = assay: Human Operon arrays (PRHU04-S1) of A549 cells treated with peptide alone (Tables 31-37, 53); conditions: peptide 50 μg/ml, 4 h, A549 cells

Structure (SMILES): CC[C@H](C)[C@H](N)C(=O)N[C@@H](CC(C)C)C(=O)N1CCC[C@H]1C(=O)N[C@@H](Cc1c[nH]c2ccccc12)C(=O)N[C@@H](CCCCN)C(=O)N[C@@H](Cc1c[nH]c2ccccc12)C(=O)N1CCC[C@H]1C(=O)N[C@@H](Cc1c[nH]c2ccccc12)C(=O)N[C@@H](Cc1c[nH]c2ccccc12)C(=O)N1CCC[C@H]1C(=O)N[C@@H](Cc1c[nH]c2ccccc12)C(=O)N[C@@H](CCCNC(=N)N)C(=O)N[C@@H](CCCNC(=N)N)C(N)=O [SEQ ID NO: 2]
- IL-8 (whole human blood; 10 μg/ml peptide + E. coli O111:B4 LPS): 1912 pg/mL
- IL-8 (whole human blood; 50 μg/ml peptide + E. coli O111:B4 LPS): 1458 pg/mL
- phosphorylation of p38 and ERK1/2 (HBE cells): dose dependent phosphorylation

Structure (SMILES): CSCC[C@H](NC(=O)[C@H](CO)NC(=O)[C@@H](NC(=O)[C@H](CCCCN)NC(=O)[C@H](Cc1ccccc1)NC(=O)[C@H](CS)NC(=O)[C@H](CO)NC(=O)[C@H](CCCNC(=N)N)NC(=O)[C@@H](N)CCCCN)C(C)C)C(=O)N[C@@H](CCCNC(=N)N)C(=O)NCC(=O)N[C@H](C(=O)N[C@@H](CO)C(=O)N[C@@H](CCCNC(=N)N)C(=O)N[C@@H](CCCNC(=N)N)C(=O)N[C@@H](CCCNC(=N)N)C(=O)N[C@@H](CS)C(=O)N[C@@H](CCCCN)C(=O)O)C(C)C [SEQ ID NO: 27] (H-KRSCFKVSMRGVSRRRCK-OH; N-terminus and C-terminus assumed)
- ID#:ctrl expression ratio, AB002359 phosphoribosyl formylglycina midine synthase (A549 epithelial cells): 2.7
- ID#:ctrl expression ratio, AB006537 IL-1R accessory protein (A549 epithelial cells): 7.0
- ID#:ctrl expression ratio, AB011124 KIAA0552 gene product (A549 epithelial cells): 72.0
- ID#:ctrl expression ratio, AB014536 copine III (A549 epithelial cells): 9.5
- ID#:ctrl expression ratio, AB018285 KIAA0742 protein (A549 epithelial cells): 13.9
- ID#:ctrl expression ratio, AB020659 KIAA0852 protein (A549 epithelial cells): 7.6
- ID#:ctrl expression ratio, AC004774 distal-less homeo box 5 (A549 epithelial cells): 6.3
- ID#:ctrl expression ratio, AC005154 unkown (A549 epithelial cells): 7.2
- ID#:ctrl expression ratio, AF000237 1-acylglycerol-3-phosphate O-acyltransferase 2 (A549 epithelial cells): 2.5
- ID#:ctrl expression ratio, AF012086 RAN binding protein 2-like 1 (A549 epithelial cells): 4.0
- ID#:ctrl expression ratio, AF030555 fatty-acid-Coenzyme A ligase_long-chain 4 (A549 epithelial cells): 2.2
- ID#:ctrl expression ratio, AF035309 proteasome 26S subunit ATPase 5 (A549 epithelial cells): 6.6
- ID#:ctrl expression ratio, AF038664 UDP-Gal:beta GlcNAc beta 1_4-galactosyltransferase (A549 epithelial cells): 22.2
- ID#:ctrl expression ratio, AF042378 spindle pole body protein (A549 epithelial cells): 3.0
- ID#:ctrl expression ratio, AF052138 unknown (A549 epithelial cells): 2.8
- ID#:ctrl expression ratio, AF052183 unknown (A549 epithelial cells): 3.7
- ID#:ctrl expression ratio, AF071510 lecithin retinol acyltransferase (A549 epithelial cells): 10.3
- ID#:ctrl expression ratio, AF074723 RNA polymerase II transcriptional regulation mediator (A549 epithelial cells): 3.2
- ID#:ctrl expression ratio, AF080579 Homo sapiens integral membrane protein (A549 epithelial cells): 3.0
- ID#:ctrl expression ratio, AF088868 fibrousheathin II (A549 epithelial cells): 10.0
- ID#:ctrl expression ratio, AF093265 Homer neuronal immediate early gene_3 (A549 epithelial cells): 13.3
- ID#:ctrl expression ratio, AF124735 LIM HOX gene 2 (A549 epithelial cells): 4.4
- ID#:ctrl expression ratio, AF131831 unknown (A549 epithelial cells): 7.0
- ID#:ctrl expression ratio, AF151043 hypothetical protein (A549 epithelial cells): 2.2
- ID#:ctrl expression ratio, AF251040 putative nuclear protein (A549 epithelial cells): 3.4
- ID#:ctrl expression ratio, AJ005273 antigenic determinant of recA protein (A549 epithelial cells): 11.1
- ID#:ctrl expression ratio, AK000161 hypothetical protein (A549 epithelial cells): 8.7
- ID#:ctrl expression ratio, AK000227 hypothetical protein (A549 epithelial cells): 7.1
- ID#:ctrl expression ratio, AK000541 hypothetical protein (A549 epithelial cells): 13.9
- ID#:ctrl expression ratio, AK000576 hypothetical protein (A549 epithelial cells): 9.3
- ID#:ctrl expression ratio, AK001075 hypothetical protein (A549 epithelial cells): 2.6
- ID#:ctrl expression ratio, AK001135 Sec23-interacting protein p125 (A549 epithelial cells): 4.5
- ID#:ctrl expression ratio, AK001154 hypothetical protein (A549 epithelial cells): 4.4
- ID#:ctrl expression ratio, AK001890 unknown (A549 epithelial cells): 3.5
- ID#:ctrl expression ratio, AL024493 unknown (A549 epithelial cells): 13.5
- ID#:ctrl expression ratio, AL031121 unknown (A549 epithelial cells): 3.7
- ID#:ctrl expression ratio, AL031588 hypothetical protein (A549 epithelial cells): 20.2
- ID#:ctrl expression ratio, AL035562 paired box gene 1 (A549 epithelial cells): 81.9
- ID#:ctrl expression ratio, AL080077 unknown (A549 epithelial cells): 2.0
- ID#:ctrl expression ratio, AL096803 unknown (A549 epithelial cells): 18.3
- ID#:ctrl expression ratio, AL110125 unknown (A549 epithelial cells): 2.7
- ID#:ctrl expression ratio, AL133051 unknown (A549 epithelial cells): 6.3
- ID#:ctrl expression ratio, AL133605 unknown (A549 epithelial cells): 4.2
- ID#:ctrl expression ratio, AL137268 KIAA0759 protein (A549 epithelial cells): 2.3
- ID#:ctrl expression ratio, AL137461 unknown (A549 epithelial cells): 9.0
- ID#:ctrl expression ratio, AL137540 unknown (A549 epithelial cells): 2.6
- ID#:ctrl expression ratio, AL137577 unknown (A549 epithelial cells): 6.2
- ID#:ctrl expression ratio, AL137718 unknown (A549 epithelial cells): 8.0
- ID#:ctrl expression ratio, D00760 proteasome subunit_alpha type_2 (A549 epithelial cells): 2.6
- ID#:ctrl expression ratio, D12676 CD36 antigen (A549 epithelial cells): 3.4
- ID#:ctrl expression ratio, D31891 SET domain_bifurcated_1 (A549 epithelial cells): 6.0
- ID#:ctrl expression ratio, D42053 site-1 protease (A549 epithelial cells): 7.1
- ID#:ctrl expression ratio, D50405 histone deacetylase 1 (A549 epithelial cells): 7.2
- ID#:ctrl expression ratio, D80000 Segregation of mitotic chromosomes 1 (A549 epithelial cells): 2.5
- ID#:ctrl expression ratio, D87120 osteoblast protein (A549 epithelial cells): 2.0
- ID#:ctrl expression ratio, J03068 N-acylaminoacyl-peptide hydrolase (A549 epithelial cells): 5.0
- ID#:ctrl expression ratio, L34587 transcription elongation factor B (A549 epithelial cells): 16.3
- ID#:ctrl expression ratio, M34175 adaptor-related protein complex 2 beta 1 subunit (A549 epithelial cells): 3.1
- ID#:ctrl expression ratio, M81933 cell division cycle 25A (A549 epithelial cells): 3.1
- ID#:ctrl expression ratio, M97925 defensin alpha 5_Paneth cell-specific (A549 epithelial cells): 35.9
- ID#:ctrl expression ratio, NM_004732 potassium voltage-gated channel (A549 epithelial cells): 4.0
- ID#:ctrl expression ratio, NM_004862 LPS-induced TNF-alpha factor (A549 epithelial cells): 4.8
- ID#:ctrl expression ratio, NM_006963 zinc finger protein 22 (A549 epithelial cells): 7.6
- ID#:ctrl expression ratio, NM_013329 GC-rich sequence DNA-binding factor candidate (A549 epithelial cells): 14.3
- ID#:ctrl expression ratio, NM_013393 cell division protein FtsJ (A549 epithelial cells): 5.8
- ID#:ctrl expression ratio, NM_014366 putative nucleotide binding protein_estradiol-induced (A549 epithelial cells): 4.3
- ID#:ctrl expression ratio, NM_016015 CGI-68 protein (A549 epithelial cells): 2.3
- ID#:ctrl expression ratio, S49953 DNA-binding transcriptional activator (A549 epithelial cells): 4.0
- ID#:ctrl expression ratio, S57296 HER2/neu receptor (A549 epithelial cells): 12.1
- ID#:ctrl expression ratio, U00115 zinc finger protein 51 (A549 epithelial cells): 2.2
- ID#:ctrl expression ratio, U13666 G protein-coupled receptor 1 (A549 epithelial cells): 5.4
- ID#:ctrl expression ratio, U33547 MHC class II antigen HLA-DRB6 mRNA (A549 epithelial cells): 5.3
- ID#:ctrl expression ratio, U67156 mitogen-activated protein kinase kinase kinase 5 (A549 epithelial cells): 3.0
- ID#:ctrl expression ratio, U68018 MAD homolog 2 (A549 epithelial cells): 2.2
- ID#:ctrl expression ratio, U71092 G protein-coupled receptor 24 (A549 epithelial cells): 9.1
- ID#:ctrl expression ratio, U78305 protein phosphatase 1D (A549 epithelial cells): 13.0
- ID#:ctrl expression ratio, U88528 cAMP responsive element binding protein (A549 epithelial cells): 5.4
- ID#:ctrl expression ratio, U88666 SFRS protein kinase 2 (A549 epithelial cells): 5.9
- ID#:ctrl expression ratio, X59770 IL-1R type II (A549 epithelial cells): 4.7
- ID#:ctrl expression ratio, X62744 MHC class II DM alpha (A549 epithelial cells): 4.7
- ID#:ctrl expression ratio, X63563 polymerase II polypeptide B (A549 epithelial cells): 8.1
- ID#:ctrl expression ratio, X89399 RAS p21 protein activator (A549 epithelial cells): 14.9
